{"source": "patent US20220313626A1", "about": "“SMALL MOLECULE INHIBITORS FOR TREATING CANCER IN A SUBJECT HAVING TUMORS WITH HIGH INTERSTITIAL PRESSURE” (GUANGZHOU MAXINOVEL PHARMACEUTICALS CO., LTD., priority 2019, published 2022)", "key": {"[1]": {"system": "PD-L1 suppressed human T-cells", "experiment": "Activation of T-Cell Suppressed by PD-L1 (IFN-g readout)", "assay_type": "cell-based", "conditions": "human T cells co-cultured with Hep3B cells transfected with human PD-L1; dose dependent; Keytruda positive control", "from_the_text": "To measure the cellular activity of the compound, a protocol of Activation of T-Cell Suppressed by PD-L1 was used. In this protocol, human Hep3B cells were stably transfected with human PD-L1. The human T cells containing PD-1 were inactivated by co-culturing with these PD-L1 transfected cells. Then anti-PD-1 antibody Keytruda® was selected as the reference to profile the compound for its activation of PD-L1 suppressed human T-cells."}, "[2]": {"system": "4T1 tumor cells", "experiment": "Anti-tumor efficacy in the subcutaneous 4T1 murine breast cancer model in BALB/c mice", "assay_type": "in vivo", "conditions": "4T1, BALB/c mice; for TGI / Tumor Volume: PO, BID, 20 days", "method": "Materials required for the experiment: Antibody: mouse PD-1 antibody, Product specifications: 7.09 mg/mL (50 mg/mL), Lot No.: 695318A1 purchased from BioXcell, storage at 4 °C. Experiment animal: 60 BALB/C mice, female, 6˜8 weeks old, 20˜23 g, purchased from Shanghai Lingchang Biotechnology Co, Ltd. Formulation material: castor oil (Cremophor RH40), CAS No.: 61788-85-0, Lot No.: 29761847G0, purchased from Shanghai Xietai Chemical Co. Ltd.; β-cyclodextrin (SBE-β-CD), CAS No.:128446-35-5, Lot No.: 20180110, purchased from Shanghai Shaoyuan Chemical Co. Ltd.; RPMI-1640 culture medium, Art. No.: 1869036, Lot No.:11875-093, purchased from Gibco Co. Ltd.; PBS, Art. No.: SH30256.01, Lot No.: AB10141338, purchased from HyClone Co. Ltd.; Fetal bovine serum: CAS No.: 10099-141, Lot No.: 1966174C, purchased from Gibco Co. Ltd.\nCell preparation and implantation: 4T1 cells (CRL-2539™) were cultured with RPMI 1640 supplemented with 10% heat inactivated FBS at 37° C. in 5% CO2 incubator. Cells were passaged 3 times a week. Cells were harvested, counted and passaged, inoculated when around 70% confluent.\nTumor cell inoculation and group administration: The 50 uL cell suspension containing 1×10^5 4T1 tumor cells (cells suspended in base RPMI-1640 medium) was inoculated into the fourth fat pad of the left abdomen of mice. On the second day after inoculation, according to the order of tumor inoculation, stratified randomization was used to group and start the administration on the day of grouping.\nPreparation of test substances: Preparation of formulation: 490 mL of sterile water was added into the volumetric flask with magnetic stirring to have a vortex. 100 g of castor oil (Cremophor RH40) was added with a spoon slowly into the vortex and the solution was kept stirring. 200 g of β-cyclodextrin (SBE-β-CD) was added while the solution was kept stirring until the solution was clear, and the total volume was set to 1000 mL, which contained 10% (w/v) Cremophor RH40+20% (w/v) an aqueous solution of SBE-β-CD.\nPreparation of Compound Suspension: 178.88 mg compound was weighed and 14.817 mL 10% (w/v) Cremophor RH40+20% (w/v) SBE-β-CD aqueous solution were added. The suspension solution with a concentration of 12.0 mg/mL was obtained by fully mixing with magnetic stirring. 7.0 mL of the compound suspension solution with concentration of 12.0 mg/mL was pipetted and 7.0 mL aqueous formulation solution was added. The suspension solution with a concentration of 6.0 mg/mL was obtained by fully mixing with magnetic stirring, 7.0 mL of the compound suspension solution with concentration of 6.0 mg/mL was pipetted and 7.0 mL aqueous formulation solution was added. The suspension solution with a concentration of 3.0 mg/mL was obtained by fully mixing with magnetic stirring. 7.0 mL of the compound suspension solution with concentration of 3.0 mg/mL was pipetted and 7.0 mL aqueous formulation solution was added. The suspension solution with a concentration of 1.5 mg/mL was obtained by fully mixing with magnetic stirring. The compound suspension solution was prepared once a day.\nPreparation of mPD-1 Antibody: 0.339 mL mPD-L1 antibody (7.09 mg/mL) original solution was pipetted and 2.061 mL PBS solution was added. The solution was fully mixed and the final concentration of 1 mg/mL solution was obtained.\nProcedure: The mice in the vehicle group were weighed and recorded in the electronic balance according to their numbers. The mice in the vehicle group were given prepared formulation solution twice a day by oral administration according to their body weight with a capacity of 0.1 mL/10 g. Each mouse spent about 20 seconds and 10 mice in each group shared for about 5 minutes.\nThe mice in the antibody (10 mg/kg) group were weighed and recorded in the electronic balance according to their numbers. The mice in the antibody group were given prepared antibody solution twice a week by IP administration according to their body weight with a capacity of 0.1 ml/10 g. […]"}}}
{"smiles": "Cc1c(/C=C/c2cc(CN[C@@](C)(CO)C(=O)O)ccc2C(F)(F)F)cccc1-c1ccccc1", "note": "[Compound]", "values": [{"measurement": "activation of PD-L1 suppressed human T cell, indicated by increase of cytokine IFN-g", "setting": "[1]", "result": "effectively restored the activation"}, {"measurement": "TGI", "setting": "[2]; 15 mg/kg", "result": 19.96, "unit": "%"}, {"measurement": "Tumor Volume", "setting": "[2]; 15 mg/kg", "result": "689.03 ± 43.97", "unit": "mm^3"}, {"measurement": "TGI", "setting": "[2]; 30 mg/kg", "result": 33.34, "unit": "%"}, {"measurement": "Tumor Volume", "setting": "[2]; 30 mg/kg", "result": "573.9 ± 43.18", "unit": "mm^3"}, {"measurement": "TGI", "setting": "[2]; 60 mg/kg", "result": 36.32, "unit": "%"}, {"measurement": "Tumor Volume", "setting": "[2]; 60 mg/kg", "result": "548.24 ± 31.39", "unit": "mm^3"}, {"measurement": "TGI", "setting": "[2]; 120 mg/kg", "result": 41.55, "unit": "%"}, {"measurement": "Tumor Volume", "setting": "[2]; 120 mg/kg", "result": "503.16 ± 32.93", "unit": "mm^3"}, {"measurement": "minimum effective dose", "setting": "[2]; p<0.05", "result": 30, "unit": "mpk"}]}
